According to PMC6332448, “SAR Studies Leading to the Identification of a Novel Series of Metallo-β-lactamase Inhibitors for the Treatment of Carbapenem-Resistant Enterobacteriaceae Infections That Display Efficacy in an Animal Infection Model” (ACS Infectious Diseases, 2018):
Values joined by “and” are separate entries in the source; they are usually repeats but may differ in a detail not shown here. Equal entries are not always repeated. Where two headings read alike, the source gives them in different places.

Columns and labels:
Experiment in all cases: biochemical
VIM-2 = VIM-2 (Escherichia coli, UniProt Q5U7L7)
NDM-1 = NDM-1 (Klebsiella pneumoniae, UniProt C7C422); type: biochemical; conditions: for IC50: 10 mM HEPES pH 7.5, 25 °C, average of at least two independent assays; for inhibition of NDM-1, in words: tested up to 200 μM
Sequence of NDM-1 (C7C422 29-270, looked up, species assumed): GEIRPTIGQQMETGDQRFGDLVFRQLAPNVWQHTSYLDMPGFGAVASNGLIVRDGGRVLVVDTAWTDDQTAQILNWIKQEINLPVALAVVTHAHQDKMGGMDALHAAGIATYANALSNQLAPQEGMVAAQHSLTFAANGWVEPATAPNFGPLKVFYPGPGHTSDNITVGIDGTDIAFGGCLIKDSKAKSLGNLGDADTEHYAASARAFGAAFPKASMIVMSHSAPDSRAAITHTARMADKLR

VIM-1 = VIM-1 (Pseudomonas aeruginosa, UniProt A0A0F7KYQ8); type: biochemical; conditions: for inhibition of VIM-1, in words: tested up to 200 μM
IMP-1 = IMP-1 (Serratia marcescens, UniProt P52699); type: biochemical; conditions: for inhibition of IMP-1, in words: tested up to 200 μM
Sequence of IMP-1 (P52699 19-246, looked up, species assumed): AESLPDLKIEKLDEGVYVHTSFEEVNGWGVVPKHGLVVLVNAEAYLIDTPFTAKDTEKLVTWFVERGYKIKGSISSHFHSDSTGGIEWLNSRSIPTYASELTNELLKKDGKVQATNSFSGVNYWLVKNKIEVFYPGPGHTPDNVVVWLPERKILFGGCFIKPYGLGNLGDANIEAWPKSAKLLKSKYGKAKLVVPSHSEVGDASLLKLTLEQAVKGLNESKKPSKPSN

[1] = 300 μM imipenem, read-out: NDM-1 IC50
[2] = 300 μM imipenem, 10 mM HEPES pH 7.5, 25 °C, average of at least two independent assays, read-out: VIM-1 IC50
[3] = 300 μM imipenem, 10 mM HEPES pH 7.5, 25 °C, average of at least two independent assays, read-out: IMP-1 IC50

Cn1cnc(C(=O)O)c1 [Compound 8]
IC50 (VIM-2): > 200 µM | IC50 (NDM-1; NDM-1 IC50, 300 μM imipenem): > 200 µM | inhibition of NDM-1, in words (NDM-1): no detectable inhibition | IC50 (VIM-1): > 200 µM | inhibition of VIM-1, in words (VIM-1): no detectable inhibition | IC50 (IMP-1): > 200 µM | inhibition of IMP-1, in words (IMP-1): no detectable inhibition

O=C(O)c1ncccc1NS(=O)(=O)Cc1ccc([N+](=O)[O-])cc1 [Compound 44]
IC50 (NDM-1; [1]): 120 µM | IC50 (VIM-1; [2]): > 200 µM | IC50 (IMP-1; [3]): > 200 µM

CCCCC(=O)Nc1ccnc(C(=O)O)c1 [Compound 51]
IC50 (NDM-1; [1]): 11.5 µM | IC50 (VIM-1; [2]): > 200 µM | IC50 (IMP-1; [3]): > 200 µM

CCCCC(=O)Nc1cccnc1C(=O)O [Compound 20]
IC50 (NDM-1; [1]): 11.1 µM | IC50 (VIM-1; [2]): > 200 µM | IC50 (IMP-1; [3]): 157 µM

O=C(Cc1ccc(Cl)c(Cl)c1)Nc1cccc(C(=O)O)n1 [Compound 28]
IC50 (NDM-1; [1]): 3.56 µM | IC50 (VIM-1; [2]): > 200 µM | IC50 (IMP-1; [3]): 82.2 µM

CS(=O)(=O)Nc1cccnc1C(=O)O [Compound 31]
IC50 (NDM-1; [1]): 68.8 µM | IC50 (VIM-1; [2]): > 200 µM | IC50 (IMP-1; [3]): > 200 µM

O=C(O)c1ncccc1NS(=O)(=O)c1ccc(F)cc1 [Compound 35]
IC50 (NDM-1; [1]): 52.1 µM | IC50 (VIM-1; [2]): > 200 µM | IC50 (IMP-1; [3]): > 200 µM

O=C(Cc1cccs1)Nc1ccnc(C(=O)O)c1 [Compound 53]
IC50 (NDM-1; [1]): 43 µM | IC50 (VIM-1; [2]): > 200 µM | IC50 (IMP-1; [3]): > 200 µM

CCCCNC(=O)c1cccc(C(=O)O)n1 [Compound 49]
IC50 (NDM-1; [1]): > 200 µM | IC50 (VIM-1; [2]): > 200 µM | IC50 (IMP-1; [3]): > 200 µM

O=C(O)c1cccc(-c2ccc(F)c(F)c2)n1 [Compound 16]
IC50 (VIM-2): > 200 µM | IC50 (NDM-1; NDM-1 IC50, 300 μM imipenem): > 200 µM | IC50 (VIM-1): > 200 µM | IC50 (IMP-1): > 200 µM

O=C(Cc1c(Cl)cccc1Cl)Nc1cccnc1C(=O)O [Compound 21]
IC50 (NDM-1; [1]): 8.99 µM | IC50 (VIM-1; [2]): > 200 µM | IC50 (IMP-1; [3]): > 200 µM

O=C(Cc1ccccc1)Nc1ccnc(C(=O)O)c1 [Compound 52]
IC50 (NDM-1; [1]): 11.6 µM | IC50 (VIM-1; [2]): > 200 µM | IC50 (IMP-1; [3]): > 200 µM

O=C(O)c1ncccc1NS(=O)(=O)c1ccccc1Cl [Compound 34]
IC50 (NDM-1; [1]): > 200 µM | IC50 (VIM-1; [2]): > 200 µM | IC50 (IMP-1; [3]): > 200 µM

O=C(O)c1ncccc1NS(=O)(=O)Cc1ccccc1Cl [Compound 67]
IC50 (NDM-1; NDM-1 IC50, 300 μM imipenem): 32.6 µM | IC50 (VIM-1): 10.9 µM

COc1cccc(S(=O)(=O)Nc2cccc(C(=O)O)n2)c1 [Compound 45]
IC50 (NDM-1; [1]): 43.3 µM | IC50 (VIM-1; [2]): > 200 µM | IC50 (IMP-1; [3]): > 200 µM

N#Cc1cccc(S(=O)(=O)Nc2ccc(C(=O)O)nc2)c1 [Compound 60]
IC50 (NDM-1; [1]): 7.2 µM | IC50 (VIM-1; [2]): > 200 µM | IC50 (IMP-1; [3]): 162 µM

O=C(O)c1ncccc1NS(=O)(=O)Cc1ccc(Cl)c(Cl)c1 [Compound 69]
IC50 (NDM-1; NDM-1 IC50, 300 μM imipenem): > 200 µM | IC50 (VIM-1): > 200 µM | IC50 (IMP-1): > 200 µM

O=C(O)c1cnccn1 [Compound 9]
IC50 (VIM-2): > 200 µM | IC50 (NDM-1; NDM-1 IC50, 300 μM imipenem): > 200 µM | inhibition of NDM-1, in words (NDM-1): no detectable inhibition | IC50 (VIM-1): > 200 µM | inhibition of VIM-1, in words (VIM-1): no detectable inhibition | IC50 (IMP-1): > 200 µM | inhibition of IMP-1, in words (IMP-1): no detectable inhibition

O=C(CCc1ccccc1)Nc1cccnc1C(=O)O [Compound 19]
IC50 (NDM-1; [1]): 20.3 µM | IC50 (VIM-1; [2]): > 200 µM | IC50 (IMP-1; [3]): 34.1 µM

O=C(Cc1ccccc1)Nc1ccc(C(=O)O)nc1 [Compound 56]
IC50 (NDM-1; [1]): 21.4 µM | IC50 (VIM-1; [2]): > 200 µM | IC50 (IMP-1; [3]): > 200 µM

O=C(O)c1ncccc1-c1ccc(F)c(F)c1 [Compound 14]
IC50 (VIM-2): > 200 µM | IC50 (NDM-1; NDM-1 IC50, 300 μM imipenem): > 200 µM | IC50 (VIM-1): > 200 µM | IC50 (IMP-1): > 200 µM

CS(=O)(=O)Nc1cccc(C(=O)O)n1 [Compound 47]
IC50 (NDM-1; [1]): 32.8 µM | IC50 (VIM-1; [2]): > 200 µM | IC50 (IMP-1; [3]): > 200 µM

O=C(O)c1cccc(C(=O)NCc2nccs2)n1 [Compound 48]
IC50 (NDM-1; [1]): > 200 µM | IC50 (VIM-1; [2]): > 200 µM | IC50 (IMP-1; [3]): > 200 µM

O=C(Cc1ccc(F)cc1)Nc1ccc(C(=O)O)nc1 [Compound 57]
IC50 (NDM-1; [1]): 27.9 µM | IC50 (VIM-1; [2]): > 200 µM | IC50 (IMP-1; [3]): > 200 µM

O=C(O)c1ncccc1NS(=O)(=O)Cc1cccc(F)c1 [Compound 36]
IC50 (NDM-1; [1]): > 200 µM | IC50 (VIM-1; [2]): 108 µM | IC50 (IMP-1; [3]): 152 µM

O=C(O)c1ncccc1-c1ccoc1 [Compound 13]
IC50 (VIM-2): > 200 µM | IC50 (NDM-1; NDM-1 IC50, 300 μM imipenem): > 200 µM | IC50 (VIM-1): > 200 µM | IC50 (IMP-1): > 200 µM

O=C(O)c1cccc(NC(=O)c2cocn2)n1 [Compound 25]
IC50 (NDM-1; [1]): 55.9 µM | IC50 (VIM-1; [2]): > 200 µM | IC50 (IMP-1; [3]): > 200 µM

O=C(O)c1ccc(NS(=O)(=O)c2ccccc2)cn1 [Compound 59]
IC50 (NDM-1; [1]): 2.17 µM | IC50 (VIM-1; [2]): 109 µM | IC50 (IMP-1; [3]): 114 µM

CCCCC(=O)Nc1cccc(C(=O)O)n1 [Compound 26]
IC50 (NDM-1; [1]): 19.4 µM | IC50 (VIM-1; [2]): > 200 µM | IC50 (IMP-1; [3]): > 200 µM

O=C(O)c1ncccc1NS(=O)(=O)Cc1ccc(Cl)cc1 [Compound 42]
IC50 (NDM-1; [1]): 18.4 µM | IC50 (VIM-1; [2]): 88.4 µM | IC50 (IMP-1; [3]): 146 µM

O=C(O)c1ncsc1NS(=O)(=O)c1ccncc1 [Compound 77]
IC50 (VIM-2): 1.8 µM | IC50 (NDM-1; NDM-1 IC50, 300 μM imipenem): 3.4 µM | IC50 (VIM-1): 180 µM | IC50 (IMP-1): 23.4 µM

O=C(O)c1cc(NS(=O)(=O)c2ccccc2)ccn1 [Compound 55]
IC50 (NDM-1; [1]): 145 µM | IC50 (VIM-1; [2]): > 200 µM | IC50 (IMP-1; [3]): > 200 µM

O=C(Cc1c(Cl)cccc1Cl)Nc1cccc(C(=O)O)n1 [Compound 27]
IC50 (NDM-1; [1]): > 200 µM | IC50 (VIM-1; [2]): > 200 µM | IC50 (IMP-1; [3]): 80 µM

CS(=O)(=O)c1ccc(S(=O)(=O)Nc2cccnc2C(=O)O)cc1 [Compound 30]
IC50 (NDM-1; [1]): 69.9 µM | IC50 (VIM-1; [2]): > 200 µM | IC50 (IMP-1; [3]): > 200 µM

O=C(O)c1cccc(NS(=O)(=O)Cc2ccccc2)n1 [Compound 46]
IC50 (NDM-1; [1]): 43.7 µM | IC50 (VIM-1; [2]): > 200 µM | IC50 (IMP-1; [3]): > 200 µM

O=C(O)c1ncccc1-c1ccncc1 [Compound 12]
IC50 (VIM-2): > 200 µM | IC50 (NDM-1; NDM-1 IC50, 300 μM imipenem): > 200 µM | IC50 (VIM-1): > 200 µM | IC50 (IMP-1): > 200 µM

O=C(Cc1cccs1)Nc1cccnc1C(=O)O [Compound 23]
IC50 (VIM-2): 91.3 µM | IC50 (NDM-1; NDM-1 IC50, 300 μM imipenem): 6.56 µM and 6.6 µM | IC50 (VIM-1): 133 µM | IC50 (IMP-1): 146 µM

O=C(O)c1cc(NS(=O)(=O)Cc2ccccc2)ccn1 [Compound 54]
IC50 (NDM-1; [1]): 65 µM | IC50 (VIM-1; [2]): > 200 µM | IC50 (IMP-1; [3]): > 200 µM

O=C(Cc1cccs1)Nc1cccc(C(=O)O)n1 [Compound 29]
IC50 (NDM-1; [1]): > 200 µM | IC50 (VIM-1; [2]): > 200 µM | IC50 (IMP-1; [3]): > 200 µM

O=C(O)c1ncccc1NS(=O)(=O)Cc1ccc(Cl)cc1Cl [Compound 71]
IC50 (NDM-1; NDM-1 IC50, 300 μM imipenem): 80.6 µM | IC50 (VIM-1): 17.5 µM | IC50 (IMP-1): 74.3 µM

COc1ccc(C(=O)Nc2cccc(C(=O)O)n2)cc1 [Compound 24]
IC50 (NDM-1; [1]): 20.3 µM | IC50 (VIM-1; [2]): > 200 µM | IC50 (IMP-1; [3]): 156 µM

O=C(O)c1cc2ccccc2cn1 [Compound 11]
inhibition of NDM-1, in words (NDM-1): modest inhibition | inhibition of VIM-1, in words (VIM-1): no inhibition | inhibition of IMP-1, in words (IMP-1): no inhibition

COc1cccc(CC(=O)Nc2ccnc(C(=O)O)c2)c1 [Compound 50]
IC50 (NDM-1; [1]): 35.3 µM | IC50 (VIM-1; [2]): > 200 µM | IC50 (IMP-1; [3]): > 200 µM

O=C(O)c1cccnn1 [Compound 10]
IC50 (VIM-2): > 200 µM | IC50 (NDM-1; NDM-1 IC50, 300 μM imipenem): > 200 µM | inhibition of NDM-1, in words (NDM-1): no detectable inhibition | IC50 (VIM-1): > 200 µM | inhibition of VIM-1, in words (VIM-1): no detectable inhibition | IC50 (IMP-1): > 200 µM | inhibition of IMP-1, in words (IMP-1): no detectable inhibition

N#Cc1cccc(S(=O)(=O)Nc2cccnc2C(=O)O)c1 [Compound 33]
IC50 (NDM-1; [1]): 148 µM | IC50 (VIM-1; [2]): > 200 µM | IC50 (IMP-1; [3]): > 200 µM

O=C(O)c1ccc(NS(=O)(=O)Cc2ccccc2)cn1 [Compound 58]
IC50 (NDM-1; [1]): 3.99 µM | IC50 (VIM-1; [2]): > 200 µM | IC50 (IMP-1; [3]): > 200 µM

O=C(O)c1cccc(-c2ccoc2)n1 [Compound 15]
IC50 (VIM-2): > 200 µM | IC50 (NDM-1; NDM-1 IC50, 300 μM imipenem): 163 µM | IC50 (VIM-1): > 200 µM | IC50 (IMP-1): > 200 µM
